Data published in PubChem BioAssay (NCI).
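Each compound was tested at five concentrations against cells in 96-well plates for 48 hours. GI50: concentration for 50% inhibition of growth. TGI denotes the concentration required for complete inhibition of growth.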

Tests used:
Experiment in all cases: DTP human tumour cell line panel, 48 h
SW-620 colon = test system: SW-620 colon
DMS 273 small cell lung = test system: DMS 273 small cell lung
SNB-78 CNS = test system: SNB-78 CNS
KM20L2 colon = test system: KM20L2 colon
LXFL 529 NSCLC = test system: LXFL 529 NSCLC
DMS 114 small cell lung = test system: DMS 114 small cell lung
DLD-1 colon = test system: DLD-1 colon
HOP-18 NSCLC = test system: HOP-18 NSCLC
XF 498 CNS = test system: XF 498 CNS
RXF-631 renal = test system: RXF-631 renal
M19-MEL melanoma = test system: M19-MEL melanoma

In the case of `CC(=O)c1sc2c(c1OC(=O)c1ccccc1)c(=O)n(-c1ccccc1)c(=S)n2-c1ccccc1`, the TGI (SW-620 colon) was > 82.6 µM.

For `COC(=O)CCc1cc(OC)c2oc(-c3ccc(OC)c(OC)c3)c(CO)c2c1`, the TGI (SW-620 colon) was > 100 µM.

In the case of `N#Cc1c2c(c(Nc3cccc(C(F)(F)F)c3)n3c1nc1ccccc13)CCCC2`, the TGI (SW-620 colon) was > 100 µM.

In the case of `O=C(O)CCC1(CCC(=O)O)CCCCCCCCC(CCC(=O)O)(CCC(=O)O)C(=O)C1=O`, the TGI (SW-620 colon) was > 100 µM.

In the case of `CCCCCCc1cc2cc(-c3cn4ccccc4n3)c(=O)oc2cc1O`, the TGI (SW-620 colon) was > 53.6 µM.

In the case of `Cc1cc(N(CCC#N)CCC#N)ccc1/C=C(\N=[N+]=[N-])C(=O)NC(=O)COc1ccccc1`, the TGI (DMS 273 small cell lung) was > 100 µM, the TGI (SNB-78 CNS) was > 100 µM and the TGI (KM20L2 colon) was > 100 µM. For the same compound, the TGI (LXFL 529 NSCLC) was > 100 µM, the TGI (DMS 114 small cell lung) was > 100 µM and the TGI (DLD-1 colon) was > 100 µM. For the same compound, the TGI (SW-620 colon) was > 100 µM, the TGI (HOP-18 NSCLC) was > 100 µM and the TGI (XF 498 CNS) was > 100 µM. For the same compound, the TGI (RXF-631 renal) was > 100 µM.

With `O=S1(=O)OCCOS(=O)(=O)C1(Br)Br` the TGI (M19-MEL melanoma) was > 100 µM, the TGI (DMS 273 small cell lung) was > 100 µM and the TGI (SNB-78 CNS) was > 100 µM. The TGI (LXFL 529 NSCLC) was > 100 µM, the TGI (DMS 114 small cell lung) was > 100 µM and the TGI (DLD-1 colon) was > 100 µM. The TGI (SW-620 colon) was > 100 µM.

`CCOC(=O)C(C(=O)OCC)S(C)(=O)=O` was tested, and the TGI (M19-MEL melanoma) was > 100 µM, the TGI (DMS 273 small cell lung) was > 100 µM and the TGI (KM20L2 colon) was > 100 µM. The TGI (DMS 114 small cell lung) was > 100 µM, the TGI (DLD-1 colon) was > 100 µM and the TGI (SW-620 colon) was > 100 µM. The TGI (HOP-18 NSCLC) was > 100 µM, the TGI (XF 498 CNS) was > 100 µM and the TGI (RXF-631 renal) was > 100 µM.

`COc1cc(C2SCC(=O)N2c2ccc(Cl)cc2)cc(OC)c1OC` (stereo unspecified) was tested, and the TGI (SW-620 colon) was > 100 µM.

`Cc1nnc(N)nc1C/C=C/C(C)Sc1ccc(Cl)cc1` (stereo unspecified) was tested, and the TGI (SW-620 colon) was > 48 µM.

For `CC(C)C1CCC(=O)CC1CCCCC1CC(=O)CC1O[Si](C)(C)C(C)(C)C` (stereo unspecified), the TGI (SW-620 colon) was > 26.5 µM.

For `CC1=C(C(=O)NNC(=O)c2ccccc2O)CC(C(=O)NNC(=O)c2ccccc2O)=C(C)N1`, the TGI (SW-620 colon) was > 100 µM.

`O=C(O)C1Cc2[nH]c3ccccc3c2C2CCCC12` (stereo unspecified) was tested, and the TGI (M19-MEL melanoma) was > 100 µM, the TGI (DMS 273 small cell lung) was > 100 µM and the TGI (SNB-78 CNS) was > 100 µM. The TGI (KM20L2 colon) was > 100 µM, the TGI (LXFL 529 NSCLC) was > 100 µM and the TGI (DMS 114 small cell lung) was > 100 µM. The TGI (DLD-1 colon) was > 100 µM, the TGI (SW-620 colon) was > 100 µM and the TGI (XF 498 CNS) was > 100 µM.

With `O=C(O)c1ccc(Nc2nc3ccc(C(F)(F)F)cc3nc2-c2ccccc2)cc1` the TGI (SW-620 colon) was > 100 µM.

In the case of `N#CCCN(c1ccc(C=Nc2ccc(C(=O)O)cc2)cc1)S(=O)(=O)c1ccccc1`, the TGI (M19-MEL melanoma) was > 100 µM, the TGI (DMS 273 small cell lung) was > 100 µM and the TGI (SNB-78 CNS) was > 100 µM. The TGI (KM20L2 colon) was > 100 µM, the TGI (LXFL 529 NSCLC) was > 100 µM and the TGI (DMS 114 small cell lung) was > 100 µM. For the same compound, the TGI (DLD-1 colon) was > 100 µM, the TGI (SW-620 colon) was > 100 µM and the TGI (HOP-18 NSCLC) was > 100 µM. For the same compound, the TGI (XF 498 CNS) was > 100 µM.

In the case of `CCOC(=O)c1cc(C2CCN(Cc3ccccc3)C2=O)c(C(=O)/C=C(/C)N)[nH]1` (stereo unspecified), the TGI (SW-620 colon) was > 100 µM.

`CC(/C=C1\CCC(CN(C)C)C1=O)c1cccc(Br)c1` (stereo unspecified) gave a TGI (M19-MEL melanoma) of 50.2 µM, a TGI (SNB-78 CNS) of 44.7 µM and a TGI (KM20L2 colon) of 45.4 µM. For the same compound, the TGI (LXFL 529 NSCLC) was 17.1 µM, the TGI (DMS 114 small cell lung) was 54.8 µM and the TGI (DLD-1 colon) was 35.1 µM. The TGI (SW-620 colon) was 26.2 µM, the TGI (HOP-18 NSCLC) was 33.9 µM and the TGI (XF 498 CNS) was 35.1 µM. It also gave a TGI (RXF-631 renal) of 16.9 µM.

`CC(C)(CN1CCCCC1)C(=O)CC(SCCS(=O)(=O)O)c1ccccc1` (stereo unspecified) showed a TGI (SW-620 colon) of 28.8 µM.

`COc1cc(Cn2c3ccccc3c3cc(C)cc(OC)c32)cc2c1[nH]c1ccccc12` was tested, and the TGI (M19-MEL melanoma) was > 25 µM, the GI50 (DMS 273 small cell lung) was 15.2 µM and the TGI (DMS 273 small cell lung) was > 25 µM. For the same compound, the TGI (SNB-78 CNS) was > 25 µM, the GI50 (KM20L2 colon) was 15.4 µM and the TGI (KM20L2 colon) was > 25 µM. The GI50 (LXFL 529 NSCLC) was 17 µM, the TGI (LXFL 529 NSCLC) was > 25 µM and the TGI (DMS 114 small cell lung) was > 25 µM. The TGI (DLD-1 colon) was > 25 µM, the GI50 (SW-620 colon) was 13.4 µM and the TGI (SW-620 colon) was > 25 µM.

`Cc1cnc2c(c1)C(=O)N(c1ccc(Br)cc1)S2(=O)=O` was tested, and the TGI (SW-620 colon) was > 100 µM.

For `O=C(O)c1ccc(Nc2nc3ccc(C(F)(F)F)cc3nc2C(=O)O)cc1`, the TGI (SW-620 colon) was > 100 µM.

With `CCOC(=O)C(CCSC)(CCSC)C(=O)OCC` the TGI (SW-620 colon) was > 100 µM.

With `O=C(O)c1ccccc1/C=N\N(CCO)C1=NCCN1` the TGI (SW-620 colon) was > 100 µM.

In the case of `O=C(Nc1ccccc1)c1cc2cc(CCl)ccc2oc1=O`, the TGI (SW-620 colon) was > 100 µM.

For `Cc1ccc(C(CCO)CCO)nc1`, the TGI (SW-620 colon) was > 100 µM.

In the case of `Clc1ccc2c(c1)CC1C[N+]3=C(CCCCC3)C1=C2` (stereo unspecified), the TGI (SW-620 colon) was > 100 µM.

In the case of `CC(NNC(=S)N1CCCC1)c1cccnn1` (stereo unspecified), the TGI (SW-620 colon) was > 100 µM.

With `Nc1nc(N)c2c(-c3ccccc3)ccnc2n1` the TGI (SW-620 colon) was > 100 µM.

In the case of `O=C(/C=C/c1ccc(Cl)cc1)c1nc2ccccc2[nH]1`, the TGI (SW-620 colon) was 53.1 µM.

Work on `CC(C)(Cl)C(Cl)CC/C(CBr)=C(\Cl)CBr` (stereo unspecified) yielded a TGI (SW-620 colon) of 3.28 µM.

For `CC(C)(C)C1CCC2c3c([nH]c4ccccc34)C3C(=O)N(c4cc(Cl)ccc4Cl)C(=O)C3C2C1` (stereo unspecified), the TGI (SW-620 colon) was > 100 µM.

In the case of `CC(=O)OC1CC2C(=O)CC1(C)C2(C)C` (stereo unspecified), the TGI (SW-620 colon) was > 100 µM.

Work on `COc1ccccc1/C=C1\CCC(CN2CCOCC2)C1=O` (stereo unspecified) yielded a TGI (M19-MEL melanoma) of 18 µM, a TGI (DMS 273 small cell lung) of 28.4 µM and a TGI (SNB-78 CNS) of 48.2 µM. For the same compound, the TGI (KM20L2 colon) was 32.6 µM, the TGI (LXFL 529 NSCLC) was 9.34 µM and the TGI (DMS 114 small cell lung) was 35.6 µM. For the same compound, the TGI (DLD-1 colon) was 18.1 µM, the TGI (SW-620 colon) was 11.5 µM and the TGI (HOP-18 NSCLC) was 31.8 µM. The TGI (XF 498 CNS) was 30.1 µM and the TGI (RXF-631 renal) was 24.4 µM.

With `C[C@H]1[C@H](C)CC[C@]2(C(=O)O)CCC3(COC(=O)/C=C/c4ccc(O)cc4)C(=CCC4[C@@]5(C)CC[C@H](O)C(C)(C)C5CC[C@]43C)[C@H]12` (stereo partly specified) the TGI (M19-MEL melanoma) was > 100 µM, the TGI (DMS 273 small cell lung) was 25.9 µM and the TGI (SNB-78 CNS) was > 100 µM. The TGI (KM20L2 colon) was 16.4 µM, the TGI (LXFL 529 NSCLC) was 24.8 µM and the TGI (DMS 114 small cell lung) was 32 µM. For the same compound, the TGI (DLD-1 colon) was 15.8 µM, the TGI (SW-620 colon) was 18 µM and the TGI (HOP-18 NSCLC) was 33.9 µM. It also gave a TGI (RXF-631 renal) of 30.4 µM.

With `C/C1=C\CC[C@@]2(C)O[C@@H]2C[C@@H]2[C@H](C/C(C)=C/CC1)OC(=O)[C@]21CO1` the TGI (SW-620 colon) was > 100 µM.

With `COC(=O)N1C2C(C[C@@]1(C)C(=O)OC)c1ccccc1N2S(=O)(=O)c1ccccc1` (stereo partly specified) the TGI (SW-620 colon) was > 100 µM.

In the case of `CC(=O)O[C@H]1C(=O)[C@@]2(C)[C@H]([C@H](OC(=O)c3ccccc3)[C@]3(O)C[C@H](OC(=O)[C@H](O)[C@@H](NC(=O)OC(C)(C)C)c4ccco4)C(C)=C1C3(C)C)[C@]1(OC(C)=O)CO[C@@H]1C[C@@H]2O`, the TGI (SW-620 colon) was > 50 µM.
